# Laboratory results published in the supplement of paper PMC11451515.
# Tested on: P12-Ichikawa
# Experiment: cell viability relative to DMSO control; higher = less cytotoxic
# Settings: 48 h
# Summary of the method: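 In 1536-well plates, 5 μl of leukemia cells were seeded per well: 500 cells/well for NOMO1 or SEM and 1000 cells/well for P12-Ichikawa. Each line had first been adapted for at least four passages in each medium. Library compounds in DMSO were pin-dosed at 11 threefold concentrations between 47 μM and 0.79 nM, and CellTiter-Glo One luminescence was read after 48 h at 37°C. Viability is a per-plate percentage relative to DMSO wells, with cell-free wells as background.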
# [1] = HPLM + 10% dialyzed FBS, 0.000781 µM
# [2] = HPLM + 10% dialyzed FBS, 0.00234 µM
# [3] = HPLM + 10% dialyzed FBS, 0.00702 µM
# [4] = HPLM + 10% dialyzed FBS, 0.0211 µM
# [5] = HPLM + 10% dialyzed FBS, 0.0632 µM
# [6] = HPLM + 10% dialyzed FBS, 0.19 µM
# [7] = HPLM + 10% dialyzed FBS, 0.569 µM
# [8] = HPLM + 10% dialyzed FBS, 1.71 µM
# [9] = HPLM + 10% dialyzed FBS, 5.12 µM
# [10] = HPLM + 10% dialyzed FBS, 15.4 µM
# [11] = HPLM + 10% dialyzed FBS, 46.1 µM
# [12] = RPMI 5 mM glucose + 10% FBS, 0.000781 µM
# [13] = RPMI 5 mM glucose + 10% FBS, 0.00234 µM
# [14] = RPMI 5 mM glucose + 10% FBS, 0.00702 µM
# [15] = RPMI 5 mM glucose + 10% FBS, 0.0211 µM
# [16] = RPMI 5 mM glucose + 10% FBS, 0.0632 µM
# [17] = RPMI 5 mM glucose + 10% FBS, 0.19 µM
# [18] = RPMI 5 mM glucose + 10% FBS, 0.569 µM
# [19] = RPMI 5 mM glucose + 10% FBS, 1.71 µM
# [20] = RPMI 5 mM glucose + 10% FBS, 5.12 µM
# [21] = RPMI 5 mM glucose + 10% FBS, 15.4 µM
# [22] = RPMI 5 mM glucose + 10% FBS, 46.1 µM
# [23] = RPMI 5 mM glucose + 10% dialyzed FBS, 0.000781 µM
# [24] = RPMI 5 mM glucose + 10% dialyzed FBS, 0.00234 µM
# [25] = RPMI 5 mM glucose + 10% dialyzed FBS, 0.00702 µM
# [26] = RPMI 5 mM glucose + 10% dialyzed FBS, 0.0211 µM
# [27] = RPMI 5 mM glucose + 10% dialyzed FBS, 0.0632 µM
# [28] = RPMI 5 mM glucose + 10% dialyzed FBS, 0.19 µM
# [29] = RPMI 5 mM glucose + 10% dialyzed FBS, 0.569 µM
# [30] = RPMI 5 mM glucose + 10% dialyzed FBS, 1.71 µM
# [31] = RPMI 5 mM glucose + 10% dialyzed FBS, 5.12 µM
# [32] = RPMI 5 mM glucose + 10% dialyzed FBS, 15.4 µM
# [33] = RPMI 5 mM glucose + 10% dialyzed FBS, 46.1 µM
Structure (SMILES),cell viability [1] [%],cell viability [2] [%],cell viability [3] [%],cell viability [4] [%],cell viability [5] [%],cell viability [6] [%],cell viability [7] [%],cell viability [8] [%],cell viability [9] [%],cell viability [10] [%],cell viability [11] [%],cell viability [12] [%],cell viability [13] [%],cell viability [14] [%],cell viability [15] [%],cell viability [16] [%],cell viability [17] [%],cell viability [18] [%],cell viability [19] [%],cell viability [20] [%],cell viability [21] [%],cell viability [22] [%],cell viability [23] [%],cell viability [24] [%],cell viability [25] [%],cell viability [26] [%],cell viability [27] [%],cell viability [28] [%],cell viability [29] [%],cell viability [30] [%],cell viability [31] [%],cell viability [32] [%],cell viability [33] [%]
COCC(=O)NC/C=C/c1ccc2ncnc(Nc3ccc(Oc4ccc(C)nc4)c(C)c3)c2c1,99.6,99.3,101,107,101,92.3,103,98.6,95.7,93.1,64.5,91.7,112,106,105,105,100,91.5,101,81.6,77.2,43.1,102,109,115,113,105,99,97.9,101,88,79.7,51.5
CN(C)c1ccc(-c2nc3c(N4CCN(CC(=O)Nc5nccs5)CC4)c(Cl)cnc3[nH]2)cc1,109,107,118,110,113,117,115,109,108,102,103,113,114,116,131,109,125,111,115,118,95.9,103,,,,,,,,,,,
CC(=O)N(O)CCCCCNC(=O)CCC(=O)N(O)CCCCCNC(=O)CCC(=O)N(O)CCCCCN.C[S+](=O)([O-])O,93.5,76.5,40.7,10.3,11,11.2,10.8,9.88,9.31,9.06,9.61,98.4,110,99,99,54.9,13.4,13.2,11.6,16.4,11.4,12.3,97.8,108,114,99.2,79.9,18.4,20.7,16.7,15.2,16.1,22
CCC(=O)O[C@@]1(CC[C@H]2[C@@H]3CCC/4=C/C(=O)CC[C@]4(C)[C@H]3CC[C@]12C)C(=O)CO,99.2,107,104,115,110,116,125,107,98.9,83.7,83.1,91.6,122,109,113,112,118,109,109,106,78.9,69.1,102,103,108,109,98.6,117,116,106,110,79.9,63
CC[C@H](CO)Nc1nc(NCc2ccccc2)c2ncn(C(C)C)c2n1,85.4,93.9,95.1,91.7,94.8,95.1,93.1,86.4,91.6,85.2,79.5,91.2,93.1,93.2,92.9,98.1,95.2,95.9,82.8,86.4,77.6,78.2,91.2,94.4,95.5,83.9,89.5,94.3,92,88.7,87.3,86.6,82
O=C(Nc1ccccc1)Nc1ccc(-c2ccc(C(=O)[C@@H]3CCC[C@H]3C(=O)O)cc2)cc1,105,102,117,113,113,122,96.7,105,90.8,87,79,110,117,100,113,116,114,118,102,92.8,73,86.2,123,121,116,104,122,122,115,114,89.6,83.9,83.1
CN(CC(=O)N(Cc1ccc(C2CCCCC2)cc1)c1ccc(C(=O)O)c(O)c1)[S+](=O)([O-])c1c(F)c(F)c(F)c(F)c1F,93,100,94.2,102,106,107,107,101,91.7,75.3,5.29,93,100,99.5,101,99.7,103,100,105,101,92.5,51.3,87.8,90.1,91.4,93.9,96.6,87.1,94.3,96,97.9,79.6,29.6
O=C(NOCC1CC1)c1ccc(F)c(F)c1Nc1ccc(I)cc1Cl,92.8,98,104,110,114,106,101,94.8,84.3,82.2,79.3,96.6,102,105,103,110,98,97.1,88.7,74,60.9,70,92.9,106,98,112,109,114,110,112,91.8,71,82.6
O=c1oc2cc(O)ccc2s1,114,115,111,115,116,117,115,110,108,106,104,115,131,95.8,116,117,116,117,107,108,107,96.8,104,126,109,112,111,116,114,104,100,103,85.9
Clc1ccc(C(c2ccc(Cl)cc2)[n+]2ccn(CC(OCc3ccc(Cl)cc3Cl)c3ccc(Cl)cc3Cl)c2)cc1 (centres undefined),115,112,109,104,113,117,110,98.1,102,70.6,47.1,129,113,115,110,115,115,113,100,105,70.2,21,,,,,,,,,,,
Nc1nccc(-c2ccc3noc(-c4ccc(Cl)cc4)c3c2)n1,124,124,131,129,120,124,128,120,122,115,118,,,,,,,,,,,,116,119,122,123,117,115,110,123,115,105,110
COc1c(N2C[C@@H]3CCCN[C@@H]3C2)c(F)cc2c(=O)c(C(=O)O)cn(C3CC3)c12.Cl.O,98.4,114,107,109,103,114,102,99.4,78.9,63,70.6,116,112,109,112,106,107,91.9,92.2,53.8,12.9,54,98.7,99.5,107,109,98.6,97,91,88.5,53.4,17.5,42.3
CCC(=O)NC[C@H](Cc1ccc(OCCc2nc(-c3ccccc3)oc2C)cc1)N/C(C)=C\C(=O)c1ccc(C(F)(F)F)cc1,102,97.6,93.8,104,109,106,91.1,99.1,76,35,8.82,95.8,98,103,112,106,110,77.7,105,66.7,50.4,7.18,98.3,99.4,100,104,99.3,99.7,83.6,86.8,62.1,53.3,11.8
COc1cc2c(cc1O)CCC1C2CC[C@@]2(C)C1CC[C@@H]2O (some centres undefined),116,120,118,89.9,120,112,114,65.1,31.8,17.9,15.8,,,,,,,,,,,,120,125,115,114,126,120,115,96.3,47,27.8,26.2
Cn1cnc(N)c2ncnc1-2,110,116,125,127,115,116,124,110,88.5,5.12,4.04,97.1,119,114,117,121,114,126,113,83.6,6.1,3.21,97.9,109,117,128,123,130,124,113,91.9,7.88,3.87
CCCCN1CCC(CNC(=O)c2c3n(c4ccccc24)CCCO3)CC1,100,104,109,112,115,109,116,110,107,95,68.9,107,105,109,112,118,101,112,114,112,90.1,68,92.8,107,106,98.5,113,105,112,112,109,94.7,78.5
